“And” between values parts separate entries of the source, which are not always exact repeats. Identical values can stand only once. Like-named read-outs stand apart in the source and are kept apart here.
Columns and labels:
[1] = test system: KG1 cells; test: Systemic KG1 AML model survival; format: in vivo, NSG female mice
Description: The potential relevance of these in vitro observations was assessed in NSG female mice with pre-existing disseminated KG1 cells and treated with a compound of Formula (I) (40 mg/kg, IP, QD for 14 days), 5-azacytidine (5 mg/kg, IP, administered on days 7, 10, 13, 16, and 19 (5 doses total)), or the combination of both compounds. Under the conditions of the assay, the median survival time of mice treated with saline alone or a compound of Formula (I) was 69.5 and 69 days, respectively (FIG. 9). Administration of a compound of Formula (I) with 5-azacytidine increased median survival time beyond that obtained with 5-azacytidine treatment alone (>104 days versus 88 days; P=0.014, FIG. 9).

[2] = molecular target: T1, E-selectin (Homo sapiens, UniProt P16581); test: E-selectin competitive binding assay (sLe^a polyacrylamide conjugate)
T1 construct: fused on or other part: Ig (immunoglobulin Fc) part fused on as a handle for immobilisation
T1 sequence (P16581 22-175 limits assumed): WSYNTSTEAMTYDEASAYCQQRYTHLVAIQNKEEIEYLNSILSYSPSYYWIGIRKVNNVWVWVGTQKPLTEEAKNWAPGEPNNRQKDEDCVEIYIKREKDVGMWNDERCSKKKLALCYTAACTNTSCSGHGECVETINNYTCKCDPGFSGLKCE
Description: (§1) The inhibition assay to screen for and characterize glycomimetic antagonists of E-selectin is a competitive binding assay, which allows the determination of IC50 and IC90 values. An E-selectin/Ig chimera was immobilized in 96 well microtiter plates by incubation at 37° C. for 2 hours. To reduce nonspecific binding, bovine serum albumin was added to each well and incubated at room temperature for 2 hours. The plate was washed and serial dilutions of the test compounds were added to the wells in the presence of conjugates of biotinylated, sLe^a polyacrylamide with streptavidin/horseradish peroxidase and incubated for 2 hours at room temperature.
(§2) To determine the amount of sLe^a bound to immobilized E-selectin after washing, the peroxidase substrate, 3, 3′, 5, 5′ tetramethylbenzidine (TMB) was added. After 3 minutes, the enzyme reaction was stopped by the addition of H3PO4, and the absorbance of light at a wavelength of 450 nm was determined. The concentration of a compound of Formula (I), required to inhibit binding by 50% was determined and reported as the IC50. The concentration required to inhibit binding by 90% was determined and reported as the IC90.

[3] = molecular target: T2, E-selectin (Mus musculus, UniProt Q00690); test: as above
T2 construct: fused on or other part: Ig (immunoglobulin Fc) part fused on as a handle for immobilisation
T2 sequence (Q00690 22-175 limits assumed): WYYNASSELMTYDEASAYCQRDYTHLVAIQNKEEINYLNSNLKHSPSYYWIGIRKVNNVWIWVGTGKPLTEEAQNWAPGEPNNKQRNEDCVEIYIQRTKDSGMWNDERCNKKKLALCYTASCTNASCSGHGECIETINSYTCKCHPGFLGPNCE
Description: as §1, §2

[4] = test system: relapsed/refractory (R/R) acute myeloid leukemia (AML); test: Phase 2 clinical outcomes, relapsed/refractory AML, sodium salt infusion with MEC; format: in vivo, human
Description: In this Phase 2 study related to the Phase 1 study described above (see Example 13), 47 additional subjects were administered the RP2D dose of 10 mg/kg/dose. The data of the 19 subjects in the 10 mg/kg/dose arm of the Phase 1 study was added to the data of these 47 additional subjects, resulting in data for 66 human subjects being considered in the Phase 2 study.
In detail, consistent with the Phase 1 study protocols, a total of 66 human subjects with relapsed/refractory (R/R) acute myeloid leukemia (AML) were selected for this study (i.e., the 19 subjects from the 10 mg/kg/dose arm of the Phase 1 study plus 47 additional subjects).
Whether as part of the Phase 1 study (for 19 of the subjects) or as an additional subject for the Phase 2 study, each subject received a total of 15 infusions of the RP2D dose of 10 mg/kg/dose of the compound of Formula (I), administered as the sodium salt, over 8 days with a nominal infusion duration of 20 minutes (either as part of the Phase 1 study for 19 subjects or as a new Phase 2). The formulation for the infusion solution was as follows: […]
The first dose of a compound of Formula (I) was administered 24 hours±1 hour prior to the first dose of MEC (mitoxantrone, etoposide, and cytarabine) induction chemotherapy as a sentinel dose to evaluate the effect of the compound of Formula (I) alone (i.e., a single dose of 10 mg/kg the day before the first chemotherapy day). The compound of Formula (I) was then administered every 12 hours±1 hour on chemotherapy days, starting 2 hours prior to chemotherapy (i.e., 20 mg/kg per day on chemotherapy days). […] MEC chemotherapy was administered on Days 2-6.
The clinical outcome for each subject was assessed at the time of count recovery following completion of induction chemotherapy. Subjects were assigned to one of four response groups: complete remission (“CR”); complete remission with incomplete count recovery (“CRi”); morphologic leukemia-free state (“MLFS”); persistent disease (“PD”). Complete remission was defined as bone marrow blasts <5%; absence of circulating blasts and blasts with Auer rods; absence of extramedullary disease; ANC ≥1.0×10^9/L and platelets ≥100,000×10^9/L. Complete remission with incomplete recovery was defined as: all CR criteria except for residual neutropenia (<1.0×10^9/L) or thrombocytopenia (<100,000×10^9/L). Morphologic leukemia-free state was defined as: bone marrow blasts <5%; absence of blasts with Auer rods; absence of extramedullary disease; no hematologic recovery required. Persistent disease was defined as: bone marrow blasts >5%.
Outcomes shown below provide data for Phase 1 (Example 13, all cohorts combined), Phase 2, and Total (Phase 1 and Phase 2) subject populations.

CC[C@@H]1CC(C(=O)NCCNC(=O)CCOCCOCCOCCOCCOCCOCCOCCOCCOCCOCCOCCOC)C[C@@H](O[C@@H]2O[C@@H](CO)[C@H](O)C(O[C@@H](CC3CCCCC3)C(=O)O)C2NC(C)=O)C1OC1O[C@@H](C)C(O)[C@H](O)[C@@H]1O (stereo partly drawn) [compound of Formula (I)]
median survival time ([1]; 40 mg/kg IP QD 14 days alone): 69 days
median survival time ([1]; 40 mg/kg IP QD 14 days with 5-azacytidine): > 104 days
IC50 [2]: 2440 nM and 2400 nM
IC90 [2]: 7535 ng/mL
IC90 ([2]; read-out: IC90): 7.54 µg/mL and 5.68 µM
IC50 [3]: 2450 nM and 2490 nM
IC90 [3]: 3.7 µM and 4.91 µg/mL
response rate (CR/CRi) ([4]; after a single course of induction treatment with MEC): over 40%
severe oral mucositis rate ([4]; with MEC): 2-3%
one-year survival rate, MRD negative subjects ([4]; with MEC, RP2D 10 mg/kg/dose): 73%
one-year survival rate, all subjects ([4]; with MEC, RP2D 10 mg/kg/dose): 35%
median overall survival ([4]; with MEC, RP2D 10 mg/kg/dose, 95% CI 5.7-11.4): 8.8 months

From patent US11707474B2, “Methods for treating acute myeloid leukemia and related conditions” (GlycoMimetics, Inc., priority 2018, dated 2023)
